Assay results reported in patent US6013667A, “Benzenesulfonylamine compounds, process for preparing them and pharmaceutical compositions” (Adir Et Compagnie, priority 1997, dated 2000).

Key:
Rabbit saphene vein = test: Non-endothelium-dependent relaxations in rabbit saphene vein; details: for IC50: Oryctolagus cuniculus, rabbit saphene vein, contraction with KCl (60 mM), read-out: 50% effective relaxant concentration (IC50)
Procedure: (§1) New Zealand rabbits (2.5 kg) are exsanguinated under anesthesia (pentobarbital, 30 mg/kg) and the saphene veins are rapidly removed and cut into 3-mm rings. These rings are mounted between two hooks in tanks thermostatically adjusted to 37° C., containing physiological saline (composition in mM: 118 NaCl; 25 NaHCO3; 10 glucose; 4.7 KCl; 1.25 CaCl2; 1.19 MgSO4; 1.14 KHPO4).
The physiological saline is bubbled with a mixture of 95% O2 /5% CO2. The lower hook constitutes the fixed point whereas the upper hook is connected to an isometric force sensor. The tissues are placed under a base tension of 1 gram. The pharmacological substances studied are prepared immediately before use. The drugs are dissolved in water or in dimethyl sulfoxide.
This EC50 is calculated routinely in the following way: the tension values are first converted into percentages relative to the maximum effect and these percentages are then plotted on a graph with the percentages on the Y-axis and the log (concentration) values on the X-axis. A linear regression is then carried out on the points between 10% and 90% (which corresponds to the linear part of the sigmoidal curve). The concentration corresponding to the half-maximal effect (50%) can readily be calculated using the parameters of the straight line. After washing and returning to the base line, the organ is placed in contact with the antagonist (8 different concentrations for each organ) for 20 minutes. A second effect/concentration curve is thus produced in the presence of the antagonist and the "treated" EC50 can then be calculated. This thus provides all the elements which allow the pA2 (competitive antagonism) or pD2 (non-competitive angatonism) to be calculated.
Determination of the Non-Endothelium-Dependent Relaxations in Rabbit Saphene Vein
Rabbit saphene veins are prepared and mounted as described in the above example. After stabilization, a contraction with KCl (60 mM) is induced. […] It is calculated as described in the above example.

[1] = tested on: platelet aggregation induced by the TXA2 agonist, U 46619; test: Platelet aggregation in man (platelet-rich plasma, induced by U 46619); type: cell-based; details: human PRP, U 46619 0.3 μM, read-out: IC50, inhibition of platelet aggregation induced by U 46619
Procedure: Platelet aggregation in man
Venous blood is obtained from human volunteers who have not taken any aspirin for at least 14 days prior to the experiment. The blood is taken onto sodium citrate (0.109 M) (1 vol. of citrate by 9 vol. of blood). The platelet-rich plasma (PRP) is obtained after centrifugation (20° C.) at 200×g for 10 minutes. The number of platelets is, on average, 250,000 PL/mm^3. The PRP is stored at room temperature until the time of the test and is used within 2 hours of the blood being taken. The antagonists are tested according to the procedure described in Example 19, using U 46619 at a concentration of 0.3 μM.

vascular TP-receptor = test: Determination of the pA2 values of the antagonists towards TXA2 on rabbit saphene vein; set-up: species or system rabbit (New Zealand); details: rabbit saphene vein rings, 37° C., U 46619 10^-9 M to 10^-5 M, antagonist 20 minutes
Procedure: Determination of the pA2 Values of the Antagonists Towards TXA2 on Rabbit Saphene Vein
as §1
The physiological saline is bubbled with a mixture of 95% O2 /5% CO2. The lower hook constitutes the fixed point whereas the upper hook is connected to an isometric force sensor. The tissues are placed under a base tension of 1 gram. […]
After mounting, the preparations are left to stand for 90 minutes, with rinsing carried out every 30 minutes. After readjustment of the base tension, a contraction by a single dose of the TXA2 agonist, U 46619 at 10^-5 M, is induced in order to regularize the following contractions. […]
This EC50 is calculated routinely in the following way: the tension values are first converted into percentages relative to the maximum effect and these percentages are then plotted on a graph with the percentages on the Y-axis and the log (concentration) values on the X-axis. […] The concentration corresponding to the half-maximal effect (50%) can readily be calculated using the parameters of the straight line. […]

Row | IC50 (Rabbit saphene vein) [µM] | IC50 [1] [µM] | pA2 (vascular TP-receptor) | inhibition of relaxations by guanylate cyclase inhibitor (in words) (Rabbit saphene vein; relaxations induced by the substances of the invention, ODQ) | Structure (SMILES)
1 | 10 | 0.14 | 9.5 | – | O=C(O)CCc1c(CCO[N+](=O)[O-])ccc2c1CCC(NS(=O)(=O)c1ccc(Cl)cc1)C2 (stereo not shown) [Example 2, 3-{6-[(4-Chlorophenylsulfonyl)amino]-2-(2-nitroxyethyl)-5,6,7,8-tetrahydronaphth-1-yl}propionic acid]
2 | – | 0.14 | – | – | O=C(O)CCc1c(CO[N+](=O)[O-])ccc2c1CCC(NS(=O)(=O)c1ccc(Cl)cc1)C2 (stereo not shown) [Example 4, 3-[6-(4-Chlorophenylsulfonyl)amino-2-nitroxymethyl-5,6,7,8-tetrahydronaphth-1-yl]propionic acid]
3 | 7.7 | – | 9.8 | – | O=C(O)CCc1cc(CCO[N+](=O)[O-])cc2c1CCC(NS(=O)(=O)c1ccc(Cl)cc1)C2 (stereo not shown) [Example 6, 3-{6-[(4-Chlorophenylsulfonyl)amino]-3-(2-nitroxyethyl)-5,6,7,8-tetrahydronaphth-1-yl}propionic acid]
4 | – | – | – | capable of inhibiting relaxations | O=c1onc2cnc3ccccc3n12 [ODQ, reference compound]
